# Assays:
# Type in all cases: cell-based
# [1] = system: A549 (lung adenocarcinoma); test: Antiproliferative activity, CCK-8 cell viability; details: Homo sapiens, 72 h, read-out: Inhibition of Cancerous Cells, A549; for inhibition at 3.3 µM: compound concentration of 3.3 μM; for inhibition at 10 µM: compound concentration of 10 μM; for inhibition at 30 µM: compound concentration of 30 μM
# [2] = system: B16F10 (malignant melanoma); test: Antiproliferative activity, CCK-8 cell viability; details: Mus musculus, B16-F10, 72 h, read-out: Inhibition of Cancerous Cells, B16F10; for inhibition at 3.3 µM: compound concentration of 3.3 μM; for inhibition at 10 µM: compound concentration of 10 μM; for inhibition at 30 µM: compound concentration of 30 μM
# How it was run: (§1)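 Cells in DMEM with 10% FBS were treated with compound at 3.3, 10 or 30 μM for 72 h at 37°C. Viability was read by CCK-8 absorbance at 450 nm and expressed relative to DMSO-treated cells. Growth inhibition was binned as ≥50%, 30–50% or <30%.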
# [3] = system: A431 (epidermoid carcinoma); test: Antiproliferative activity, CCK-8 cell viability; details: Homo sapiens, A-431, 72 h, read-out: Inhibition of Cancerous Cells, A431; for inhibition at 3.3 µM: compound concentration of 3.3 μM; for inhibition at 10 µM: compound concentration of 10 μM; for inhibition at 30 µM: compound concentration of 30 μM
# How it was run: as §1
# HeLa (cervical cancer) = test: Antiproliferative activity, CCK-8 cell viability; details: Homo sapiens, 72 h, read-out: Inhibition of Cancerous Cells, HELA; for inhibition at 3.3 µM: compound concentration of 3.3 μM; for inhibition at 10 µM: compound concentration of 10 μM; for inhibition at 30 µM: compound concentration of 30 μM
# [4] = system: MDA-MB-231 (breast cancer); test: Antiproliferative activity, CCK-8 cell viability; details: Homo sapiens, 72 h, read-out: Inhibition of Cancerous Cells, MDA-MB-231; for inhibition at 3.3 µM: compound concentration of 3.3 μM; for inhibition at 10 µM: compound concentration of 10 μM; for inhibition at 30 µM: compound concentration of 30 μM
# How it was run: as §1
# HepG2 (liver cancer) = test: Antiproliferative activity, CCK-8 cell viability; details: Homo sapiens, 72 h, read-out: Inhibition of Cancerous Cells, HepG2; for inhibition at 3.3 µM: compound concentration of 3.3 μM; for inhibition at 10 µM: compound concentration of 10 μM; for inhibition at 30 µM: compound concentration of 30 μM
# How it was run: as §1
# SW480 (colon cancer) = test: Antiproliferative activity, CCK-8 cell viability; details: Homo sapiens, 72 h, read-out: Inhibition of Cancerous Cells, SW480; for inhibition at 3.3 µM: compound concentration of 3.3 μM; for inhibition at 10 µM: compound concentration of 10 μM; for inhibition at 30 µM: compound concentration of 30 μM
# How it was run: as §1
# [5] = system: alpha-smooth muscle actin (α-SMA); test: Inhibition of TGF-β induced expression of alpha-smooth muscle actin in CFSC cells (western blot); details: compound at 10 μM, TGF-β (10 ng/mL), 24 hours
# How it was run: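 Rat CCl4-treated hepatic stellate (CFSC) cells in serum-free DMEM were given compound at 10 μM plus TGF-β 10 ng/mL for 24 h at 37 °C. α-SMA measured by western blot with β-actin, bands quantified densitometrically. Percent inhibition is the decrease in band intensity versus TGF-β alone.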
Structure (SMILES),inhibition at 3.3 µM [1] [%],inhibition at 10 µM [1] [%],inhibition at 30 µM [1] [%],inhibition at 3.3 µM [2] [%],inhibition at 10 µM [2] [%],inhibition at 30 µM [2] [%],inhibition at 3.3 µM [3] [%],inhibition at 10 µM [3] [%],inhibition at 30 µM [3] [%],inhibition at 3.3 µM (HeLa (cervical cancer)) [%],inhibition at 10 µM (HeLa (cervical cancer)) [%],inhibition at 30 µM (HeLa (cervical cancer)) [%],inhibition at 3.3 µM [4] [%],inhibition at 10 µM [4] [%],inhibition at 30 µM [4] [%],inhibition at 3.3 µM (HepG2 (liver cancer)) [%],inhibition at 10 µM (HepG2 (liver cancer)) [%],inhibition at 30 µM (HepG2 (liver cancer)) [%],inhibition at 3.3 µM (SW480 (colon cancer)) [%],inhibition at 10 µM (SW480 (colon cancer)) [%],other results
"CC1=C(CC(=O)O)c2cc(F)ccc2/C1=C\c1cccc(CCc2ccccc2)c1 [Compound A17, 2-[(1Z)-5-Fluoro-2-methyl-1-{[3-(2-phenylethyl)phenyl]methylidene}-1H-inden-3-yl]acetic acid]",≥ 50,≥ 50,≥ 50,30 to 50,≥ 50,≥ 50,< 30,≥ 50,≥ 50,30 to 50,≥ 50,≥ 50,≥ 50,≥ 50,≥ 50,≥ 50,≥ 50,≥ 50,≥ 50,≥ 50,inhibition at 30 µM (SW480 (colon cancer)): ≥ 50%; inhibition at 10 µM [5]: < 30%
"CC1=C(CC(=O)O)c2cc(F)ccc2/C1=C\c1cccc(COc2ccccc2)c1 [Compound A5, (Z)-2-(5-Fluoro-2-methyl-1-(3-(phenoxymethyl)benzylidene)-1H-inden-3-yl)acetic acid]",30 to 50,30 to 50,≥ 50,< 30,30 to 50,≥ 50,< 30,30 to 50,≥ 50,< 30,30 to 50,≥ 50,≥ 50,≥ 50,≥ 50,≥ 50,≥ 50,≥ 50,≥ 50,≥ 50,inhibition at 30 µM (SW480 (colon cancer)): ≥ 50%; inhibition at 10 µM [5]: ≥ 80%
"CC1=C(CC(=O)O)c2cc(F)ccc2/C1=C\c1ccc(Oc2ccc(F)c(F)c2)cc1 [Compound D5, 2-[(1Z)-5-Fluoro-2-methyl-1-({4-[3,4-difluorophenoxy]phenyl}methylidene)-1H-inden-3-yl]acetic acid]",30 to 50,≥ 50,≥ 50,≥ 50,≥ 50,≥ 50,< 30,≥ 50,≥ 50,30 to 50,≥ 50,≥ 50,≥ 50,≥ 50,≥ 50,≥ 50,≥ 50,≥ 50,≥ 50,≥ 50,inhibition at 30 µM (SW480 (colon cancer)): ≥ 50%; inhibition at 10 µM [5]: ≥ 80%
"O=C(O)CC1=C(Cc2ccccc2)/C(=C/c2ccc(Oc3ccc(F)cc3)cc2)c2ccc(F)cc21 [Compound D9, 2-[(1Z)-5-Fluoro-2-benzyl-1-({4-[4-fluorophenoxy]phenyl}methylidene)-1H-inden-3-yl]acetic acid]",30 to 50,≥ 50,≥ 50,< 30,≥ 50,≥ 50,30 to 50,≥ 50,≥ 50,30 to 50,30 to 50,≥ 50,≥ 50,≥ 50,≥ 50,< 30,< 30,≥ 50,30 to 50,≥ 50,inhibition at 30 µM (SW480 (colon cancer)): ≥ 50%; inhibition at 10 µM [5]: ≥ 80%
"CC1=C(CC(=O)N(C)O)c2cc(F)ccc2/C1=C\c1ccc(Oc2ccccc2)cc1 [Compound B1, 2-[(1Z)-5-Fluoro-2-methyl-1-[(4-phenoxyphenyl)methylidene]-1H-inden-3-yl]-N-hydroxy-N-methylacetamide]",≥ 50,≥ 50,≥ 50,≥ 50,≥ 50,≥ 50,≥ 50,≥ 50,≥ 50,30 to 50,≥ 50,≥ 50,≥ 50,≥ 50,≥ 50,< 30,30 to 50,≥ 50,≥ 50,≥ 50,inhibition at 30 µM (SW480 (colon cancer)): ≥ 50%; inhibition at 10 µM [5]: 50 to 80%
"CC1=C(CC(=O)O)c2cc(F)ccc2/C1=C\c1ccc(F)c(Oc2ccccc2)c1 [Compound D23, 2-[(1Z)-5-Fluoro-1-(4-fluoro-3-(phenoxy)benzylidene)-2-methyl-1H-inden-3-yl]-acetic acid]",< 30,≥ 50,≥ 50,< 30,≥ 50,≥ 50,< 30,30 to 50,≥ 50,< 30,≥ 50,≥ 50,≥ 50,≥ 50,≥ 50,30 to 50,≥ 50,≥ 50,< 30,30 to 50,inhibition at 30 µM (SW480 (colon cancer)): ≥ 50%; inhibition at 10 µM [5]: ≥ 80%
"CC1=C(CC(=O)O)c2c(F)cc(F)cc2/C1=C\c1ccc(Oc2ccc(F)cc2)cc1 [Compound D16, 2-[(1Z)-4,6-Difluoro-2-methyl-1-({4-[4-fluorophenoxy]phenyl}methylidene)-1H-inden-3-yl]acetic acid]",< 30,30 to 50,30 to 50,< 30,30 to 50,≥ 50,< 30,30 to 50,≥ 50,< 30,30 to 50,≥ 50,≥ 50,≥ 50,≥ 50,30 to 50,30 to 50,≥ 50,< 30,30 to 50,inhibition at 30 µM (SW480 (colon cancer)): ≥ 50%; inhibition at 10 µM [5]: ≥ 80%
"CC1=C(CC(=O)O)c2cc(F)ccc2/C1=C\c1cccc(COc2ccc(F)c(F)c2)c1 [Compound A20, 2-[(1Z)-1-({3-[(3,4-Difluorophenoxy)methyl]phenyl}methylidene)-5-fluoro-2-methyl-1H-inden-3-yl]acetic acid]",< 30,30 to 50,≥ 50,30 to 50,30 to 50,≥ 50,≥ 50,≥ 50,≥ 50,30 to 50,30 to 50,≥ 50,≥ 50,≥ 50,≥ 50,≥ 50,≥ 50,≥ 50,< 30,30 to 50,inhibition at 30 µM (SW480 (colon cancer)): ≥ 50%; inhibition at 10 µM [5]: ≥ 80%

# From patent publication US20240116845A1, “INDENE COMPOUNDS, PHARMACEUTICAL COMPOSITIONS THEREOF, AND THEIR THERAPEUTIC APPLICATIONS” (NucMito Pharmaceuticals Co., Ltd., priority 2021, published 2024)
